Measurements published in patent US10470986B2, “Resorcinol compounds for dermatological use” (Conopco, Inc., priority 2013, dated 2019).

How the values were obtained:
[1] = test system: mushroom tyrosinase (Sigma T3824); test: Mushroom Tyrosinase Inhibition Assay; assay type: biochemical; details: 10 μM compound, 300 μM L-Tyrosine, 84 units/mL enzyme, pH 6.5, 15 min at room temperature
Protocol: 10 μM compound, 300 μM L-Tyrosine, and 84 units/mL of mushroom tyrosinase (Sigma T3824) were combined into 0.05 M potassium monophosphate buffer at pH=6.5, and incubated for 15 min at room temperature. Absorbance was recorded at 490 nm. % tyrosinase inhibition was calculated as follows: (AbsDMSO−Abscmpd)/AbsDMSO×100. The assay was performed for various compounds described herein, as well as for control compounds 4-ethyl resorcinol (4ER), 4-isopropylresorcinol (4IPR), 4-hexylresorcinol (4HR), 4-cyclohexylresorcinol (4CHR), 5-methylresorcinol (5MR), kojic acid (KA), and hydroquinone (HQ), structures of which are shown below.

[2] = test system: MelanoDerm (Mel-300-B); test: Mattek 3D Skin Equivalents, MelanoDerm (Mel-300-B) assay; assay type: cell-based, human; details: every other day, 14 days
From the text: Many people at different stages of their life are concerned with the degree of pigmentation of their skin and may wish to reduce the skin darkening, or may wish to lighten or even-tone their natural skin color. The mechanism by which skin pigmentation is formed, melanogenesis, is particularly complex and schematically involves the following main steps: Tyrosine→L-Dopa→Dopaquinone→Dopachrome→Melanins. The first two reactions in this series are catalyzed by the enzyme tyrosinase. The activity of tyrosinase is promoted by the action of a-melanocyte stimulating hormone or UV rays. It is well established that a substance has a depigmenting effect if it acts directly on the vitality of the epidermal melanocytes where melanogenesis normally occurs and/or if it interferes with one of the stages in melanin biosynthesis. Pigmentation disorders can take a variety of forms like hyperpigmentation, hypopigmentation, and uneven pigmentation, and include but are not limited to melasma (mask of pregnancy or chloasma), liver spots (which often develop with age) and leukoderma such as vitiligo. […] The degree of pigmentation disorders of the skin in many cases increases with the age of the individuals. Because of the involvement of tyrosinase in melanogensis, tyrosinase inhibition assays are often used to screen potential skin lightening agents. Some mushroom tyrosinases (such as that from Agaricus bisporus) are homologous with mammalian tyrosinase, and mushroom tyrosinase is often used in inhibition assays due to its ready commercial availability. However, the enzyme inhibition assays may not be as good an indicator of activity as assays which are more similar to the intended clinical or cosmetic use, such as the MatTek Corporation's MelanoDerm™ Skin Model (a system which consists of normal, human-derived epidermal keratinocytes and melanocytes formed into a multilayered model of human epidermis).
MelanoDerm (Mel-300-B) assay was conducted according to the manufacturer's instruction (MatTek Corporation). Every other day, the test articles were administered into the EPI-100-NMM-113 culture medium, and positive control, 25 uL of 2% Kojic acid was applied topically. After 14 days, tissue viability and melanocyte morphology were visually verified and tissue melanin was extracted and quantitated against a standard curve. % melanin was calculated as follows: (MelaninDMSO−Melanincomp)/MelaninDMSO×100. The assay was performed for various compounds described herein, as well as for control compounds 4ER, 4IPR, 4HR, 4CHR, kojic acid, and hydroquinone.

[3] = test system: B16F1 cells; test: B16 Melanin Assay; assay type: cell-based; details: 1 mM Theophylline stimulated, 72 h, media absorbance 405 nm corrected for viability (Calcein-AM); compound concentration not stated
Protocol: After trypsinization, cells were seeded at 3,000 cells per well in a 96-well plate and allowed to attach overnight. 1 mM Theophylline was used to stimulate melanogenesis, and the compound of interest was added. […] (AbsDMSO/CalceinDMSO-[…]/CalceinDMSO×100. The assay was performed for various compounds described herein, as well as for control compounds 4ER, 4IPR, 4HR, 4CHR, 5MR kojic acid, and hydroquinone. Results are shown in Table 2.

## Cc1cc(O)cc(O)c1Cc1ccccc1 [4,5BnMR, 4-benzyl-5-methylbenzene-1,3-diol]
[1]
  Mushroom Tyrosinase (% remaining enzyme activity), % TYR Activity: 97%
[2]; 10 μM in culture medium
  MatTek Assay (% Melanin), % Melanin 3D EpiDerm: 82%
[2]; 30 μM in culture medium
  MatTek Assay (% Melanin), % Melanin 3D EpiDerm: 61%
[3]
  B16 Media Melanin (% Melanin), % Melanin B16: 86%

## Oc1cc(O)c(Cc2ccccc2)c(C(F)(F)F)c1 [4,5BnTFMR, 2-Benzyl-1,5-dihydroxy-3-trifluoromethyl-benzene]
[1]
  Mushroom Tyrosinase (% remaining enzyme activity), % TYR Activity: 93%
[2]; 30 μM in culture medium
  MatTek Assay (% Melanin), % Melanin 3D EpiDerm: 75%
[3]
  B16 Media Melanin (% Melanin), % Melanin B16: 82%

## Oc1cc(O)c(C2CCCCC2)c(F)c1 [4,5CHFR, 4-cyclohexyl-5-fluorobenzene-1,3-diol]
[1]
  Mushroom Tyrosinase (% remaining enzyme activity), % TYR Activity: 1%
[2]; 10 μM in culture medium
  MatTek Assay (% Melanin), % Melanin 3D EpiDerm: 87%
[2]; 30 μM in culture medium
  MatTek Assay (% Melanin), % Melanin 3D EpiDerm: 81%
[3]
  B16 Media Melanin (% Melanin), % Melanin B16: 51%

## Cc1cc(O)cc(O)c1C1CCCCC1 [4,5CHMR, 4-cyclohexyl-5-methylbenzene-1,3-diol]
[1]
  Mushroom Tyrosinase (% remaining enzyme activity), % TYR Activity: 22%
[2]; 10 μM in culture medium
  MatTek Assay (% Melanin), % Melanin 3D EpiDerm: 66%
[2]; 30 μM in culture medium
  MatTek Assay (% Melanin), % Melanin 3D EpiDerm: 44%
[3]
  B16 Media Melanin (% Melanin), % Melanin B16: 58%

## Oc1cc(O)c(C2CCCCC2)c(C(F)(F)F)c1 [4,5CHTFMR]
[1]
  Mushroom Tyrosinase (% remaining enzyme activity), % TYR Activity: 100%
[2]; 10 μM in culture medium
  MatTek Assay (% Melanin), % Melanin 3D EpiDerm: 89%
[3]
  B16 Media Melanin (% Melanin), % Melanin B16: 65%

## Cc1cc(O)cc(O)c1C1CCCC1 [4,5CPMR, 4-cyclopentyl-5-methylbenzene-1,3-diol]
[1]
  Mushroom Tyrosinase (% remaining enzyme activity), % TYR Activity: 71%
[2]; 10 μM in culture medium
  MatTek Assay (% Melanin), % Melanin 3D EpiDerm: 65%
[2]; 30 μM in culture medium
  MatTek Assay (% Melanin), % Melanin 3D EpiDerm: 55%
[3]
  B16 Media Melanin (% Melanin), % Melanin B16: 61%

## Cc1cc(O)cc(O)c1C1CC1 [4,5CPrMR, 4-cyclopropyl-5-methylbenzene-1,3-diol]
[1]
  Mushroom Tyrosinase (% remaining enzyme activity), % TYR Activity: 30%
[2]; 10 μM in culture medium
  MatTek Assay (% Melanin), % Melanin 3D EpiDerm: 99%
[2]; 30 μM in culture medium
  MatTek Assay (% Melanin), % Melanin 3D EpiDerm: 82%
[3]
  B16 Media Melanin (% Melanin), % Melanin B16: 62%

## Oc1cc(O)c(C2CCCCC2)c(F)c1 [4,5EFR, 4-cyclohexyl-5-fluorobenzene-1,3-diol]
[1]
  Mushroom Tyrosinase (% remaining enzyme activity), % TYR Activity: 3%
[3]
  B16 Media Melanin (% Melanin), % Melanin B16: 87%

## CCc1c(C)cc(O)cc1O [4,5EMR, 4-ethyl-5-methylbenzene-1,3-diol]
[1]
  Mushroom Tyrosinase (% remaining enzyme activity), % TYR Activity: 93%
[2]; 10 μM in culture medium
  MatTek Assay (% Melanin), % Melanin 3D EpiDerm: 102%
[2]; 30 μM in culture medium
  MatTek Assay (% Melanin), % Melanin 3D EpiDerm: 79%
[3]
  B16 Media Melanin (% Melanin), % Melanin B16: 69%

## CCc1c(O)cc(O)cc1C(F)(F)F [4,5ETFMR, 2-Ethyl-1,5-dihydroxy-3-trifluoromethyl-benzene]
[2]; 10 μM in culture medium
  MatTek Assay (% Melanin), % Melanin 3D EpiDerm: 81%
[2]; 30 μM in culture medium
  MatTek Assay (% Melanin), % Melanin 3D EpiDerm: 66%
[3]
  B16 Media Melanin (% Melanin), % Melanin B16: 68%

## CCCCCCc1c(C)cc(O)cc1O [4,5HMR, 4-hexyl-5-methylbenzene-1,3-diol]
[1]
  Mushroom Tyrosinase (% remaining enzyme activity), % TYR Activity: 10%
[2]; 10 μM in culture medium
  MatTek Assay (% Melanin), % Melanin 3D EpiDerm: 77%
[2]; 30 μM in culture medium
  MatTek Assay (% Melanin), % Melanin 3D EpiDerm: 68%
[3]
  B16 Media Melanin (% Melanin), % Melanin B16: 78%

## Cc1cc(O)cc(O)c1C(C)C [4,5IPMR, 4-isopropyl-5-methylbenzene-1,3-diol]
[2]; 10 μM in culture medium
  MatTek Assay (% Melanin), % Melanin 3D EpiDerm: 102%
[2]; 30 μM in culture medium
  MatTek Assay (% Melanin), % Melanin 3D EpiDerm: 72%
[3]
  B16 Media Melanin (% Melanin), % Melanin B16: 71%

## Cc1cc(O)cc(O)c1CC1CCCC1 [4,5MCPMR, 4-cyclopentylmethyl-5-methylbenzene-1,3-diol]
[1]
  Mushroom Tyrosinase (% remaining enzyme activity), % TYR Activity: 32%
[2]; 10 μM in culture medium
  MatTek Assay (% Melanin), % Melanin 3D EpiDerm: 94%
[2]; 30 μM in culture medium
  MatTek Assay (% Melanin), % Melanin 3D EpiDerm: 72%
[3]
  B16 Media Melanin (% Melanin), % Melanin B16: 90%

## Cc1cc(O)cc(O)c1C(C)c1ccccc1 (centres unmarked) [4,5PEMR, 4-(1-phenylethyl)-5-methylbenzene-1,3-diol]
[2]; 10 μM in culture medium
  MatTek Assay (% Melanin), % Melanin 3D EpiDerm: 98%
[2]; 30 μM in culture medium
  MatTek Assay (% Melanin), % Melanin 3D EpiDerm: 62%
[3]
  B16 Media Melanin (% Melanin), % Melanin B16: 87%

## Cc1cc(O)cc(O)c1CC(F)(F)F [4,5TFEMR, 4-(2,2,2-trifluoroethyl)-5-methylbenzene-1,3-diol]
[2]; 10 μM in culture medium
  MatTek Assay (% Melanin), % Melanin 3D EpiDerm: 81%
[2]; 30 μM in culture medium
  MatTek Assay (% Melanin), % Melanin 3D EpiDerm: 72%
[3]
  B16 Media Melanin (% Melanin), % Melanin B16: 90%

## CCC(C)c1c(C)cc(O)cc1O (centres unmarked) [4,5sBMR, 4-sec-butyl-5-methylbenzene-1,3-diol]
[1]
  Mushroom Tyrosinase (% remaining enzyme activity), % TYR Activity: 100%
[2]; 10 μM in culture medium
  MatTek Assay (% Melanin), % Melanin 3D EpiDerm: 75%
[2]; 30 μM in culture medium
  MatTek Assay (% Melanin), % Melanin 3D EpiDerm: 67%
[3]
  B16 Media Melanin (% Melanin), % Melanin B16: 76%

## Oc1ccc(C2CCCCC2)c(O)c1 [Compound 4CHR, 4-cyclohexylresorcinol, reference compound]
[1]
  Mushroom Tyrosinase (% remaining enzyme activity), % TYR Activity: 0%
[2]; 10 μM in culture medium
  MatTek Assay (% Melanin), % Melanin 3D EpiDerm: 65%
[2]; 30 μM in culture medium
  MatTek Assay (% Melanin), % Melanin 3D EpiDerm: 36%
[3]
  B16 Media Melanin (% Melanin), % Melanin B16: 63%

## CCc1ccc(O)cc1O [Compound 4ER, 4-ethyl resorcinol, reference compound]
[1]
  Mushroom Tyrosinase (% remaining enzyme activity), % TYR Activity: 2%
[2]; 10 μM in culture medium
  MatTek Assay (% Melanin), % Melanin 3D EpiDerm: 84%
[2]; 30 μM in culture medium
  MatTek Assay (% Melanin), % Melanin 3D EpiDerm: 61%
[3]
  B16 Media Melanin (% Melanin), % Melanin B16: 48%

## CCCCCCc1ccc(O)cc1O [Compound 4HR, 4-hexylresorcinol, reference compound]
[1]
  Mushroom Tyrosinase (% remaining enzyme activity), % TYR Activity: 1%
[2]; 10 μM in culture medium
  MatTek Assay (% Melanin), % Melanin 3D EpiDerm: 93%
[2]; 30 μM in culture medium
  MatTek Assay (% Melanin), % Melanin 3D EpiDerm: 72%
[3]
  B16 Media Melanin (% Melanin), % Melanin B16: 71%

## CC(C)c1ccc(O)cc1O [Compound 4IPR, 4-isopropylresorcinol, reference compound]
[1]
  Mushroom Tyrosinase (% remaining enzyme activity), % TYR Activity: 1%
[2]; 10 μM in culture medium
  MatTek Assay (% Melanin), % Melanin 3D EpiDerm: 71%
[2]; 30 μM in culture medium
  MatTek Assay (% Melanin), % Melanin 3D EpiDerm: 46%
[3]
  B16 Media Melanin (% Melanin), % Melanin B16: 77%

## Cc1cc(O)cc(O)c1 [Compound 5MR, 5-methylresorcinol, reference compound]
[1]
  Mushroom Tyrosinase (% remaining enzyme activity), % TYR Activity: 100%
[3]
  B16 Media Melanin (% Melanin), % Melanin B16: 100%

## Oc1ccc(O)cc1 [Hydroquinone, hydroquinone, reference compound]
[1]
  Mushroom Tyrosinase (% remaining enzyme activity), % TYR Activity: 100%
[2]; 10 μM in culture medium
  MatTek Assay (% Melanin), % Melanin 3D EpiDerm: 94%
[2]; 30 μM in culture medium
  MatTek Assay (% Melanin), % Melanin 3D EpiDerm: 92%
[3]
  B16 Media Melanin (% Melanin), % Melanin B16: 100%

## O=c1cc(CO)occ1O [Kojic Acid, kojic acid, reference compound]
[1]
  Mushroom Tyrosinase (% remaining enzyme activity), % TYR Activity: 84%
[2]; 10 μM in culture medium
  MatTek Assay (% Melanin), % Melanin 3D EpiDerm: 100%
[2]; 30 μM in culture medium
  MatTek Assay (% Melanin), % Melanin 3D EpiDerm: 100%
[2]; positive control, 25 uL of 2% Kojic acid applied topically
  MatTek Assay (% Melanin), % Melanin 3D EpiDerm: 75%
[3]
  B16 Media Melanin (% Melanin), % Melanin B16: 100%
